# Source: patent US8236756B2, “Prodrugs cleavable by CD26” (Consejo Superior de Investigaciones Clentificas (CSIC), priority 2003, dated 2012)
# Legend:
# purified CD26 = biological target: T1, purified CD26 (Homo sapiens, UniProt P27487); assay: Conversion of peptide prodrugs to parent compound by purified CD26 (HPLC); format: biochemical; conditions: purified CD26; within 60 min
# T1 construct: made in house
# How it was run: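 Peptide prodrugs of lipophilic nucleoside analogues were incubated with purified human CD26 at a final concentration of 1.5 milliUnits in PBS at pH 7.5, 37° C, in a 400 μl reaction started by enzyme addition. Samples were mixed with cold methanol to precipitate protein, centrifuged, and the supernatants analysed by reverse-phase HPLC to quantify conversion to the parent compound.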
# CD26 = biological target: T2, CD26 (Homo sapiens, UniProt P27487); assay: Inhibition of CD26-catalysed conversion of GP-pNA to GP+pNA (pNA release, absorption at 400 nm); format: biochemical; conditions: 50 μM GP-pNA
# T2 construct: made in house
# Experimental: The CD26 catalytic reaction was measured by recording the increase of absorption caused by pNA release at 400 nm.
# To reveal whether CD26 recognizes such synthetic di/tripeptide derivatives of lipophilic nucleoside analogues as a substrate, 50 μM CAM-405 or CAM-431 was exposed to 5.7 mUnits of purified CD26, and the conversion of CAM-405 or CAM-431 to respectively CAM-212 or CAM-403 (Val-NAP-TSAO) was recorded in function of incubation time by HPLC analysis. […] The inhibitory activity of any dipeptide can be evaluated by the above mentioned assay.
# [1] = Conversion of prodrugs to parent compound by human serum diluted in PBS; format: in vitro ADME; conditions: 2% HS in PBS
# Experimental: (§1) Human and bovine serum were incubated for 3 hr, 6 hr and/or 24 hr at 37° C. in the presence of 50 μM CAM-405. The sera were diluted in PBS at a final concentration of 0.5, 1, 2.5 or 5%. […] The longer the incubation time, and the higher the serum concentration used, the faster the conversion of CAM-405 to CAM-212 occurred (FIG. 4). As also noted for CD26, HS- and BS-catalysed reaction slowed down in function of time, and was not linearly proportional with serum concentration (FIG. 4). These findings provide again evidence for a pronounced feed-back inhibition of dipeptidyl-peptidase activity in human and bovine serum by the released Val-Pro dipeptide. HS was more efficient in converting CAM-405 to CAM-212 than BS (FIG. 4). Since 1% HS is able to hydrolyse ˜20% of 50 μM CAM-405 within 3 hrs of incubation, it could be calculated that undiluted serum would have been able to convert this prodrug amount to its parent compound at a hundred fold higher speed, that is, within 1.8 min, provided that no feed-back inhibition would have occurred (as expected in the intact organism where release of Pro-Val would immediately result in disappearance from the plasma due to several mechanisms including organ uptake, renal excretion, etc.).
# Only a very limited amount of NAP-TSAO (but not D-Pro-NAP-TSAO) had been detected (FIG. 6).
# (§2) Ten percent BS or HS converted 40 to 70% of PI-2 to PI-1 in one hour (FIG. 10). Two percent BS and HS converted PI-2 to PI-1 by 8% and 25%, respectively. After 4 hrs, 35% and 95% of compound was hydrolyzed by BS and HS, respectively (FIG. 11).
# (§3) The TSAO derivatives depicted in FIG. 1 can be synthesised as described below. GlyPro-pNA (GP-pNA), Diprotin A and Val-Pro were purchased from Sigma-Aldrich (Bornem, Belgium). CD26 was purified as described before [De Meester et al. J. Immunol. Methods (1996), 189: 99-105]. Foetal bovine serum (FBS) was obtained from Integro (Dieren, The Netherlands). Human serum represented a pooled serum that was derived from 10 healthy volunteers (blood donors). Human lymphocyte CEM cells were derived from the ATCC (Rockville, Md.).
# [2] = Conversion of prodrugs to parent compound by bovine serum diluted in PBS; format: in vitro ADME; conditions: 2% BS in PBS
# Experimental: as §1, §2, §3
# [3] = Inhibition of GP-pNA conversion to pNA by 2% bovine serum; format: biochemical; conditions: 2% BS in PBS
# [4] = Inhibition of GP-pNA conversion to pNA by 2% human serum; format: biochemical; conditions: 2% HS in PBS
# [5] = time not restated (one hour in the sentence before)
# T2 sequence (P27487 whole entry): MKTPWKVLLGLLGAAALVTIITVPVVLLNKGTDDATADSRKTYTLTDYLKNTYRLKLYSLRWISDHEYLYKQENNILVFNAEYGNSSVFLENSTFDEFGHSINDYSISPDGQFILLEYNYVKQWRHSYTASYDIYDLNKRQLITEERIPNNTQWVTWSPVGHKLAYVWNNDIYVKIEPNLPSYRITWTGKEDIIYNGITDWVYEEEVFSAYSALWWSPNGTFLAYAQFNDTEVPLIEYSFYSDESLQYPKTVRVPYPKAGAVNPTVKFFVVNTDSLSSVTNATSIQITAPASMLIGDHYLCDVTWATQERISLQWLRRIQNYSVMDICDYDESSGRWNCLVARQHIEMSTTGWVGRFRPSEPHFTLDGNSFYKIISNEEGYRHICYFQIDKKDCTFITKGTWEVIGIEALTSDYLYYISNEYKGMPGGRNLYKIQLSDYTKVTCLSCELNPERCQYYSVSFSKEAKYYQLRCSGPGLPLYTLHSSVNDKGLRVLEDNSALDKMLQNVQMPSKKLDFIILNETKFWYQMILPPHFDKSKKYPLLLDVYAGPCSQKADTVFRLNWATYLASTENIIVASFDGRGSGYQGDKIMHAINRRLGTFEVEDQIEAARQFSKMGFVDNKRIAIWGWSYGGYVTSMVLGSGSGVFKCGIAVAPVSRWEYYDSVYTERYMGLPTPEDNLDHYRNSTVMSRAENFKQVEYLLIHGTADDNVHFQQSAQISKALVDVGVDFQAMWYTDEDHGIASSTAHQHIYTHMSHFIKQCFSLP
# T1 sequence (P27487 whole entry): as above
compound,measurement,setting,value
CC(C)CN(C[C@@H](O)[C@H](Cc1ccccc1)NC(=O)O[C@H]1CO[C@H]2OCC[C@H]21)S(=O)(=O)c1ccc(CNC(=O)[C@@H]2CCCN2C(=O)[C@@H](N)C(C)C)cc1 [Val-Pro-PI 1],"Conversion of Val-Pro-PI 1 (PI-2) to PI 1 by purified CD26 within 60 min, in words",purified CD26,completely converted
same,"Inhibition of release of pNA from GP-pNA at 20 μM, in words",CD26; 20 μM,could inhibit
same,"Competition with GP-pNA for CD26 at 100 μM, in words",CD26; 100 μM,efficiently competed
same,Compound hydrolyzed by HS after 4 hrs,[1]; 4 hrs,95%
same,Conversion to PI 1 by two percent HS,[1]; [5],25%
same,Compound hydrolyzed by BS after 4 hrs,[2]; 4 hrs,35%
same,Conversion to PI 1 by two percent BS,[2]; [5],8%
same,"Inhibition of GP-pNA conversion to pNA by two percent BS, in words",[3],even more efficiently inhibited
same,"Inhibition of HS-catalysed GP-pNA conversion to pNA, in words",[4],competitively inhibited
